Measurements as given in patent publication US20030087799A1, “Modulation” (priority 2001, published 2003).
Like-named read-outs stand apart in the source and are kept apart here.

Key:
[1] = system: GABAA receptor; assay: GABAA receptor mediated chloride currents evoked on cultured neurones; type: cell-based
[2] = system: K-ATP channels in DA neurones; assay: K-ATP channel mediated response of DA neurones to mitochondrial inhibitors; type: cell-based, mouse; settings: read-out: EC50 of K-ATP channel sensitivity
[3] = system: Ih channels in DA SN neurones; assay: Pacemaker frequency of DA SN neurones under selective Ih inhibition; type: cell-based; settings: 30 μM ZD7288
[4] = system: SK mediated AHP currents (I-AHP) in dopaminergic neurons; assay: cells; type: cell-based, mouse; settings: for IC50: read-out: IC50 of I-AHP inhibition (Hill function)
[5] = system: globus pallidus neurones; assay: Electrical activity of globus pallidus neurones in brain slices; type: cell-based, mouse
[6] = system: T-type calcium channels (low voltage-activated calcium currents); type: cell-based, mouse; settings: read-out: IC50 of I-LVA inhibition (Hill function)
[7] = system: dopaminergic neurons
[8] = system: dopaminergic neurons; type: cell-based, mouse
[9] = system: dopaminergic midbrain neurons; type: cell-based, mouse

## [H]/N=C(/N)NCC(=O)O [GAA, guanidinoacetate]
[1]
  EC50: 164 µM

## C[n+]1ccc(-c2ccccc2)cc1 [MPP^+]
[2]; MPP+
  EC50: ~2 µM

## CCN(c1ccccc1)c1cc(=NC)n(C)c(C)n1.Cl [ZD7288]
[3]
  decrease of pacemaker frequency: about 50%

## [Co+2] [cobalt]
[4]; 1 mM cobalt, n=29
  I-AHP residual current (cobalt block): 29±4%

## CN(CC(=O)O)C(=N)N [creatine]
[5]; millimolar concentrations
  effect on neuronal activity: no effect

## COCC(=O)O[C@]1(CCN(C)CCCc2nc3ccccc3[nH]2)CCc2cc(F)ccc2[C@@H]1C(C)C [mibefradil, Mibefradil]
[4]; Mus musculus, Neuron, mean dose-response, recording potential −60 mV
  IC50: 5.9 µM
[4]; mibefradil, concentration not given, normalized to mean value of cobalt block, n=6
  inhibition of cobalt-sensitive I-AHP: 94±10%
[6]; depolarizations to −50 mV from holding potential −100 mV
  IC50: 4.6 µM

## [Ni+2] [nickel]
[4]
  inhibition of cobalt-sensitive I-AHP: 85±9%
  IC50: 33.8 µM
[7]
  fold reduction of AHPs with successive action potentials (cumulative inactivation): 1.1±0.1
[6]
  IC50: 33.9 µM
[8]
  coefficient of variation (CV) of interspike intervals, representative recording: 38%
  mean CV of interspike intervals: 27±5%
[9]
  bursting value (action potentials in bursts / total): 12±6%

## C=C(C)[C@H]1Cc2c(ccc3c2O[C@@H]2COc4cc(OC)c(OC)cc4[C@@H]2C3=O)O1 [rotenone]
[2]; rotenone
  EC50: ~0.015 µM

## picrotoxin
[5]; GABAA receptor antagonists
  effect on GAA-induced effects: blocked
